Experiment: Solubility of romidepsin in solvents
Type: physicochemical
Text: In one embodiment, the romidepsin liquid concentrate for dilution is formulated in a solvent system. […] Solubility of romidepsin was studied in the following solvents and solvent mixtures: glycerin:EtOH (1:1); PEG 300; PEG 400; Tween 80:EtOH (1:1); dimethylacetamide (DMA); SolutolHS15:EtOH (1:1); NMP; Water; EtOH:PEG 400 (1:1); EtOH;water (4:6); EtOH; EtOH:PG (80:20); EtOH:PG (60:40); EtOH:PG (40:60); EtOH:PG (20:80); PG; EtOH:PG (40:60)+10% water; EtOH:PG (40:60)+butylated hydroxyanizole (BHA)/butylated hydroxytoluebe (BHT); and EtOH:PG (40:60)+ascorbic acid.

C/C=C1\NC(=O)[C@H]2CSSCC/C=C/[C@H](CC(=O)N[C@H](C(C)C)C(=O)N2)OC(=O)[C@H](C(C)C)NC1=O [Romidepsin]
Solubility in water: practically insoluble in water

Source: patent US9795650B2, “Romidepsin formulations and uses thereof” (Celgene Corporation, priority 2013, dated 2017)
